Source: patent US20250263669A1, “INDUCED TOTIPOTENT STEM CELLS AND PREPARATION METHOD THEREFOR” (TSINGHUA UNIVERSITY, priority 2021, published 2025)

Columns and labels:
[1] = test system: totipotency genes, maternal genes and ZGA genes; assay: RNA-seq analysis of specific gene sets in totipotent cell induction; type: cell-based, mouse; details: for role in induction of totipotent stem cells (upregulation of totipotency genes, maternal genes and ZGA genes): RNA-seq, specific gene sets
NF-κB signaling = assay: GO analysis and gene expression after WS6 withdrawal in ciTotiSC culture conditions; type: cell-based, mouse
Text: WS6 is an IKK—NF-κB inhibitor that was previously shown to promote post-mitotic cell proliferation. […] Furthermore, it has been reported that downregulation of NF-κB during zygote development is critical for its totipotent state, and activation of NF-κB triggers subsequent development after ZGA (Akihiko Nishikimi, 1999; Paciolla et al. 2011). Therefore, WS6 may play a role in promoting and stabilizing induction of totipotent stem cells (ciTotiSCs), in part by inhibiting the NF-κB mediated immune response triggered by ERV activation (FIGS. 10k, j).

Wnt signaling [2] = details: studies have shown; cited from earlier work
Wnt signaling [3] = assay: GO analysis of Wnt signaling-targeted genes in ciTotiSC culture conditions; type: cell-based, mouse; details: 1-AKP withdrawn in ciTotiSC culture conditions
Text: (§1) Meanwhile, the inventors also observed a prolongation of the G2 phase of the cell cycle after induction of totipotent stem cells (ciTotiSCs), which was consistent with the difference between early 2C embryos and blastocysts (FIG. 10i).

[4] = test system: totipotent stem cells (ciTotiSCs); assay: Cell cycle G2 phase of totipotent stem cells (ciTotiSCs); type: cell-based, mouse; details: 1-Azakenpaullone withdrawn from ciTotiSC culture conditions
Text: as §1

C/C(=C\c1ccc(C(=O)O)cc1)c1ccc2c(c1)C(C)(C)CCC2(C)C [TTNPB]
activation of totipotency, maternal and ZGA genes rich in RAR-binding motifs [1]: could directly activate
role in induction of totipotent stem cells (upregulation of totipotency genes, maternal genes and ZGA genes) [1]: important for the induction of totipotent stem cells

CN1CCN(Cc2ccc(NC(=O)Cc3ccc(Oc4cc(NC(=O)C5CC5)ncn4)cc3)cc2C(F)(F)F)CC1 [WS6]
expression of genes downstream of NF-κB signaling (NF-κB signaling; WS6 withdrawn): up-regulated
GO analysis of differential genes after WS6 ablation (NF-κB signaling; ciTotiSC culture conditions): enriched multiple innate immunity-related pathways, especially NF-κB signaling
role in induction of totipotent stem cells (upregulation of totipotency genes, maternal genes and ZGA genes) [1]: important for the induction of totipotent stem cells

O=C1Cc2c([nH]c3ccc(Br)cc23)-c2ncccc2N1 [1-Azakenpaullone]
role in induction of totipotent stem cells (upregulation of totipotency genes, maternal genes and ZGA genes) [1]: important for the induction of totipotent stem cells
Wnt signaling downstream gene expression and cell cycle arrest (Wnt signaling [2]): induces specific Wnt signaling downstream gene expression and G2/M arrest simultaneously
specific Wnt signaling-targeted genes after withdrawal (Wnt signaling [3]): not up-regulated
G2 phase prolongation of ciTotiSCs after withdrawal [4]: reduced

Cc1ccc(C2=CCC(C)(C)c3ccc(C#Cc4ccc(C(=O)O)cc4)cc32)cc1 [AGN193109]
gene induction in the presence of the RA antagonist ([1]; in the presence of AGN193109): could not be induced
